What was measured:
[1] = target: T1, K-Ras G12D (Homo sapiens, UniProt P01116, G12D); test: PPI-HTRF assay, K-Ras G12D / SOS1 interaction; assay type: biochemical; conditions: HTRF, K-Ras G12D; read-out: PPI-HTRF-5 nM (K-Ras G12D IC50)
T1 construct: made in house; host or cells: E. coli, e.g. BL21 (DE3)
Outline: (§1)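 Compounds were tested in duplicate (10 μM to 0.01 μM) for disruption of Ras–SOS1 binding, measured as FRET between anti-GST-Eu on GST-K-Ras and anti-6His-XL665 on His-hSOS1. The buffer was HEPES pH 7.4 with NaCl, DTT, BSA and Igepal. Emission ratios (665/620 nm, excitation 337 nm) read after ≥10 min gave IC50 values.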

[2] = target: T2, K-Ras G12S (Homo sapiens, UniProt P01116, G12S); test: PPI-HTRF assay, K-Ras G12S / SOS1 interaction; assay type: biochemical; conditions: read-out: PPI-HTRF-5 nM (K-Ras G12S IC50)
T2 construct: made in house; host or cells: E. coli, e.g. BL21 (DE3)
T2 sequence (P01116 1-188 isoform P01116-2 G12S): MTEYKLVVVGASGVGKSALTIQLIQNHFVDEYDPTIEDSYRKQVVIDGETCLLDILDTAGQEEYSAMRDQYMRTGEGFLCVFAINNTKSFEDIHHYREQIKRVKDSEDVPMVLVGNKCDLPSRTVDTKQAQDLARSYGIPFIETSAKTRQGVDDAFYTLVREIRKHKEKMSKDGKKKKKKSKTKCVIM
Outline: as §1

[3] = target: T3, K-Ras G12V (Homo sapiens, UniProt P01116, G12V); test: PPI-HTRF assay, K-Ras G12V / SOS1 interaction; assay type: biochemical; conditions: HTRF, K-Ras G12V; read-out: PPI-HTRF-5 nM (K-Ras G12V IC50)
T3 construct: made in house; host or cells: E. coli, e.g. BL21 (DE3)
T3 sequence (P01116 1-188 isoform P01116-2 G12V): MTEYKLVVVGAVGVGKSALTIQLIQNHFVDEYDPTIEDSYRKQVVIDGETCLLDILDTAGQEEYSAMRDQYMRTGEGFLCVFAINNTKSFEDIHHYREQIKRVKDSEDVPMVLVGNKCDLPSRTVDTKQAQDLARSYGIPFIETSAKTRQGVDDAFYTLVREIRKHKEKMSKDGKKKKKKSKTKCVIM
Outline: as §1

[4] = system: SW620 cells; test: Ras cellular assay, cell proliferation SW620; assay type: cell-based; conditions: Homo sapiens, SW-620
Excerpt: (§2) For example, this assay can be also used to assess selective growth inhibition of a mutant Ras protein relative to a wildtype, or relative to a different mutant Ras protein.

[5] = system: A549 cells; test: Ras cellular assay, cell proliferation A549; assay type: cell-based; conditions: Homo sapiens
Method: as §2
A549 (ATCC CRL-185) and LS123 (ATCC CRL-255) cell lines comprise a G12S mutation and can be used to assess Ras cellular signaling in vitro, e.g., in response to treatment with a compound described herein. A549 culture medium is prepared with RPMI-1640 and 10% heat-inactivated FBS. LS123 culture medium is prepared with RPMI-1640 and 10% heat-inactivated FBS. A CellTiter-Glo (CTG) luminescent based assay (Promega) is used to assess growth of the cells, as a measurement of the ability of the compounds herein to inhibit Ras signaling in the cells. The cells (e.g., 800 per well) are seeded in their respective culture medium in standard tissue culture-treated 384-well format plates (Falcon #08-772-116) or ultra-low attachment surface 384-well format plates (S-Bio #MS-9384WZ). The day after plating, cells are treated with a dilution series (e.g., a 10 point, 3-fold dilution series) of the compounds herein (e.g., approximately 40 μL final volume per well). Cell viability can be monitored (e.g., approximately 6 days later) according to the manufacturer's recommended instructions, where CellTiter-Glo reagent is added (e.g., approximately 10 μL), vigorously mixed, covered, and placed on a plate shaker (e.g., approximately for 20 min) to ensure sufficient cell lysis prior to assessment of luminescent signal. The IC50 values are determined using the four parameter fit. The resulting IC50 value is a measurement of the ability of the test compound to reduce cell growth of Ras-driven cells (e.g., tumor cell lines) in vitro and/or in vivo.

[6] = target: T4, wildtype K-Ras (Homo sapiens, UniProt P01116); test: PPI-HTRF assay, wildtype K-Ras / SOS1 interaction; assay type: biochemical; conditions: HTRF, K-Ras wt; read-out: PPI-HTRF-5 nM (K-Ras wt IC50)
T4 construct: made in house; host or cells: E. coli, e.g. BL21 (DE3)
T4 sequence (P01116 1-188 isoform P01116-2): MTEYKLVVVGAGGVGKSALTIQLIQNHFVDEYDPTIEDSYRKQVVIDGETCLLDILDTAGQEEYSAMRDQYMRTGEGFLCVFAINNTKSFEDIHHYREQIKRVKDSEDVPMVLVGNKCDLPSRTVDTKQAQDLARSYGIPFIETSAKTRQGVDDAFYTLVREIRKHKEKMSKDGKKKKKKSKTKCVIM
Outline: as §1

[7] = system: GP2D cells; test: Ras cellular assay, cell proliferation GP2D; assay type: cell-based
Outline: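 Growth inhibition read by CellTiter-Glo luminescence roughly 5 days after compound addition, which followed overnight plating of G12D-mutant GP2D cells (e.g., 800 per well). Compounds were tested as a serial dilution (e.g., 9 points, 3-fold), with IC50 fitted by four-parameter model.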

Measured: IC50

T1 sequence (P01116 1-188 isoform P01116-2 G12D): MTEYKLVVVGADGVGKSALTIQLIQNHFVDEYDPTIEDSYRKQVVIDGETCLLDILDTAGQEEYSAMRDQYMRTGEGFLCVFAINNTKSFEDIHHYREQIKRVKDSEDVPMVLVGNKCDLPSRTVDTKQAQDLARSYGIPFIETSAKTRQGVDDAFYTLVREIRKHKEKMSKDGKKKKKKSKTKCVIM

N#Cc1c(N)sc2c(F)ccc(-c3c(Cl)c4c5c(nc(OC[C@@]67CCCN6C[C@H](F)C7)nc5c3F)N3CCC[C@@H]3CO4)c12 [compound 144, 2-amino-4-((12aR)-10-chloro-8-fluoro-6-(((2R,7aS)-2-fluorotetrahydro-1H-pyrrolizin-7a(5H)-yl)methoxy)-2,3,12,12a-tetrahydro-1H-pyrrolo[2′,1′:3,4][1,4]oxazepino[5,6,7-de]quinazolin-9-yl)-7-fluorobenzo[b]thiophene-3-carbonitrile]
< 5 µM: all assays above

N#Cc1c(N)sc2c(F)ccc(-c3c(Cl)c4c5c(nc(OCC67CCCN6C[C@H](F)C7)nc5c3F)N3CCCC[C@H]3CO4)c12 (stereo partly drawn) [compound 168, 2-amino-4-((5aS)-3-chloro-1-fluoro-12-(((2R,7aS)-2-fluorohexahydro-1H-pyrrolizin-7a-yl)methoxy)-5,5a,6,7,8,9-hexahydropyrido[2′,1′:3,4][1,4]oxazepino[5,6,7-de]quinazolin-2-yl)-7-fluorobenzo[b]thiophene-3-carbonitrile]
< 5 µM: all assays above

N#Cc1c(N)sc2c(F)ccc(-c3c(Cl)c4c5c(nc(OC[C@@]67CCCN6C[C@H](F)C7)nc5c3F)N3CCN(C=O)CCC3CO4)c12 (stereo partly drawn) [compound 152, 2-amino-4-(12-chloro-10-fluoro-8-(((2R,7aS)-2-fluorotetrahydro-1H-pyrrolizin-7a(5H)-yl)methoxy)-3-formyl-2,3,4,5,14,14a-hexahydro-1H-[1,4]diazepino[7′,1′:3,4][1,4]oxazepino[5,6,7-de]quinazolin-11-yl)-7-fluorobenzo[b]thiophene-3-carbonitrile]
< 5 µM: all assays above

N#Cc1c(N)sc2c(F)ccc(-c3c(Cl)c4c5c(nc(OC[C@@]67CCCN6C[C@H](F)C7)nc5c3F)N3CCNCCC3CO4)c12 (stereo partly drawn) [compound 142, 2-amino-4-(6-chloro-4-fluoro-2-(((2R,7aS)-2-fluorotetrahydro-1H-pyrrolizin-7a(5H)-yl)methoxy)-8a,9,10,11,12,13-hexahydro-8H-[1,4]diazepino[7′,1′:3,4][1,4]oxazepino [5,6,7-de]quinazolin-5-yl)-7-fluorobenzo[b]thiophene-3-carbonitrile]
< 5 µM: all assays above

N#Cc1c(N)sc2c(F)ccc(-c3c(Cl)c4c5c(nc(OC[C@@]67CCCN6C[C@H](F)C7)nc5c3F)N3C(CO)CCC3CO4)c12 (stereo partly drawn) [compound 185, 2-amino-4-(6-chloro-4-fluoro-2-(((2R,7aS)-2-fluorotetrahydro-1H-pyrrolizin-7a(5H)-yl)methoxy)-11-(hydroxymethyl)-8a,9,10,11-tetrahydro-8H-pyrrolo[2′,1′:3,4][1,4]oxazepino[5,6,7-de]quinazolin-5-yl)-7-fluorobenzo[b]thiophene-3-carbonitrile]
< 5 µM: all assays above

N#Cc1c(N)sc2c(F)ccc(-c3c(Cl)c4c5c(nc(OC[C@@]67CCCN6C[C@H](F)C7)nc5c3F)N(C3CC3)C3COCC3CO4)c12 (stereo partly drawn) [compound 125, 2-amino-4-(6-chloro-12-cyclopropyl-4-fluoro-2-(((2R,7aS)-2-fluorotetrahydro-1H-pyrrolizin-7a(5H)-yl)methoxy)-8a,9,11a,12-tetrahydro-8H,11H-furo[3′,4′:6,7][1,5]oxazocino[4,3,2-de]quinazolin-5-yl)-7-fluorobenzo[b]thiophene-3-carbonitrile]
< 5 µM: all assays above

From US12059425B2, “Heterocyclic compounds and uses thereof” (Kumquat Biosciences Inc., priority 2022, dated 2024)
